Laboratory results published in patent publication US10604512B2, “3-(1H-indol-2-yl)-1H-indazoles and therapeutic uses thereof” (Samumed, LLC, priority 2015, dated 2020).

Columns and labels:
[1] = tested on: SW480 colon cancer cells; experiment: Cell viability assay (CellTiter-Blue) in SW480 colon cancer cells; assay type: cell-based; settings: Homo sapiens, 96 h, four days; for inhibition at 10 µM: given where EC50 >10 μM, read-out: percent inhibition at 10 μM; for EC50: CellTiter-Blue
How it was run: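 Resazurin reduction (Ex 560/Em 590 nm, ~3 h reagent incubation) served as the viability read-out after SW480 cells were treated for four days at 37 °C. Doses ran from 10 μM down to 0.0045 μM in eight 1:3 steps. Curves fitted non-linearly for EC50, else % inhibition at 10 μM reported.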

[2] = tested on: Primary human fibroblasts derived from IPF patients (LL29 cells) treated with TGF-β1; experiment: Inhibition of the fibrotic process: αSMA staining in TGF-β1-treated primary human fibroblasts from IPF patients (LL29 cells); assay type: cell-based; settings: Fibroblast, 96 h; for EC50: % αSMA-positive LL29 cells, TGF-β1 20 ng/mL, 4 days; for inhibition at 10 µM: given where EC50 >10 μM, αSMA, LL29 cells, TGF-β1, 4 days, read-out: percent inhibition at 10 μM
How it was run: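 LL29 IPF-patient fibroblasts in 1% FBS stimulated with TGF-β1 (20 ng/mL) and compound (10 μM–1.87 nM, 0.1% DMSO) for 4 days at 37 °C. SYTOX-positive cells excluded; % αSMA-positive cells imaged, normalized to TGF-β1/DMSO wells; EC50 by nonlinear regression, else % inhibition at 10 μM.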

Row | EC50 [1] | Compound | inhibition at 10 µM [1] | EC50 [2] | inhibition at 10 µM [2]
1 | > 10 µM | Cc1ccncc1-c1ccc2[nH]nc(-c3cc4c(-c5ccccn5)cccc4[nH]3)c2c1 [Compound 145, 5-(4-Methylpyridin-3-yl)-3-(4-(pyridin-2-yl)-1H-indol-2-yl)-1H-indazole] | 36.7% | 2.94 µM | 
2 | > 10 µM | O=C(Nc1cncc(-c2ccc3[nH]nc(-c4cc5c(-c6ccccn6)cccc5[nH]4)c3c2)c1)c1ccccc1 [Compound 151, N-(5-(3-(4-(Pyridin-2-yl)-1H-indol-2-yl)-1H-indazol-5-yl)pyridin-3-yl) benzamide] | 17.7% | > 10 µM | 0%
3 | 2.79 µM | c1ccc(-c2cccc3[nH]c(-c4n[nH]c5ccc(-c6cncc(CN7CCCC7)c6)cc45)cc23)nc1 [Compound 154, 3-(4-(Pyridin-2-yl)-1H-indol-2-yl)-5-(5-(pyrrolidin-1-ylmethyl)pyridin-3-yl)-1H-indazole] |  | 0.222 µM | 
4 | > 10 µM | c1ccc(-c2cccc3[nH]c(-c4n[nH]c5ccc(-c6ccncc6)cc45)cc23)nc1 [Compound 158, 3-(4-(Pyridin-2-yl)-1H-indol-2-yl)-5-(pyridin-4-yl)-1H-indazole] | 36.9% | 0.627 µM | 
5 | > 10 µM | CCCCC(=O)Nc1cncc(-c2ccc3[nH]nc(-c4cc5c(-c6ccccn6)cccc5[nH]4)c3c2)c1 [Compound 159, N-(5-(3-(4-(Pyridin-2-yl)-1H-indol-2-yl)-1H-indazol-5-yl)pyridin-3-yl) pentanamide] | 22.3% | > 10 µM | 45.6%
6 | > 10 µM | c1ccc(-c2cccc3[nH]c(-c4n[nH]c5ccc(-c6cncnc6)cc45)cc23)nc1 [Compound 167, 3-(4-(Pyridin-2-yl)-1H-indol-2-yl)-5-(pyrimidin-5-yl)-1H-indazole] | 10.9% | 1.21 µM | 
7 | > 10 µM | CCC(=O)Nc1cncc(-c2ccc3[nH]nc(-c4cc5c(N6CCCCC6)cccc5[nH]4)c3c2)c1 [Compound 169, N-(5-(3-(4-(Piperidin-1-yl)-1H-indol-2-yl)-1H-indazol-5-yl)pyridin-3-yl) propionamide] | 10.4% | 1.02 µM | 
8 | 4.16 µM | CN(C)Cc1cncc(-c2ccc3[nH]nc(-c4cc5c(N6CCCCC6)cccc5[nH]4)c3c2)c1 [Compound 181, N,N-Dimethyl-1-(5-(3-(4-(piperidin-1-yl)-1H-indol-2-yl)-1H-indazol-5-yl)pyridin-3-yl)methanamine] |  | 4.82 µM | 
9 | > 10 µM | O=C(Nc1cncc(-c2ccc3[nH]nc(-c4cc5c(N6CCCCC6)cccc5[nH]4)c3c2)c1)C1CC1 [Compound 188, N-(5-(3-(4-(Piperidin-1-yl)-1H-indol-2-yl)-1H-indazol-5-yl)pyridin-3-yl) cyclopropanecarboxamide] | 29.5% | 5.79 µM | 
10 | 4.43 µM | FC1(F)CCN(Cc2cncc(-c3ccc4[nH]nc(-c5cc6c(N7CCCCC7)cccc6[nH]5)c4c3)c2)C1 [Compound 194, 5-(5-((3,3-Difluoropyrrolidin-1-yl)methyl)pyridin-3-yl)-3-(4-(piperidin-1-yl)-1H-indol-2-yl)-1H-indazole] |  | 1.31 µM | 
11 | 2.96 µM | CN1CCN(c2cccc3[nH]c(-c4n[nH]c5ccc(-c6cncc(N)c6)cc45)cc23)CC1 [Compound 227, 5-(3-(4-(4-Methylpiperazin-1-yl)-1H-indol-2-yl)-1H-indazol-5-yl)pyridin-3-amine] |  | 4 µM | 
12 | 3.16 µM | CC(C)C(=O)Nc1cncc(-c2ccc3[nH]nc(-c4cc5c(N6CCN(C)CC6)cccc5[nH]4)c3c2)c1 [Compound 233, N-(5-(3-(4-(4-Methylpiperazin-1-yl)-1H-indol-2-yl)-1H-indazol-5-yl)pyridin-3-yl)isobutyramide] |  | 1.31 µM | 
13 | > 10 µM | CN1CCN(c2cccc3[nH]c(-c4n[nH]c5ccc(-c6cncc(CN7CCCCC7)c6)cc45)cc23)CC1 [Compound 239, 3-(4-(4-Methylpiperazin-1-yl)-1H-indol-2-yl)-5-(5-(piperidin-1-ylmethyl)pyridin-3-yl)-1H-indazole] | 51.7% | > 10 µM | 21.1%
14 | 2.99 µM | CN1CCN(c2cccc3[nH]c(-c4n[nH]c5ccc(-c6cncc(NC(=O)C7CCCC7)c6)cc45)cc23)CC1 [Compound 246, N-(5-(3-(4-(4-Methylpiperazin-1-yl)-1H-indol-2-yl)-1H-indazol-5-yl)pyridin-3-yl)cyclopentanecarboxamide] |  | 2.56 µM | 
15 | 3.28 µM | CN1CCN(c2cccc3[nH]c(-c4n[nH]c5ccc(-c6cncnc6)cc45)cc23)CC1 [Compound 251, 3-(4-(4-Methylpiperazin-1-yl)-1H-indol-2-yl)-5-(pyrimidin-5-yl)-1H-indazole] |  | 3.04 µM | 
16 | > 10 µM | CCC(=O)Nc1cncc(-c2ccc3[nH]nc(-c4cc5ccccc5[nH]4)c3c2)c1 [Compound 253, N-(5-(3-(1H-Indol-2-yl)-1H-indazol-5-yl)pyridin-3-yl)propionamide] | 13.6% | 2.31 µM | 
17 | > 10 µM | c1cncc(-c2ccc3[nH]nc(-c4cc5ccccc5[nH]4)c3c2)c1 [Compound 256, 3-(1H-Indol-2-yl)-5-(pyridin-3-yl)-1H-indazole] | 4.7% | 9.77 µM | 
18 | 0.489 µM | CCNCc1cncc(-c2ccc3[nH]nc(-c4cc5ccccc5[nH]4)c3c2)c1 [Compound 258, N-((5-(3-(1H-Indol-2-yl)-1H-indazol-5-yl)pyridin-3-yl)methyl)ethanamine] |  | 0.235 µM | 
19 | > 10 µM | O=C(Cc1ccccc1)Nc1cncc(-c2ccc3[nH]nc(-c4cc5ccccc5[nH]4)c3c2)c1 [Compound 262, N-(5-(3-(1H-Indol-2-yl)-1H-indazol-5-yl)pyridin-3-yl)-2-phenylacetamide] | 11.4% | > 10 µM | 31.8%
20 | > 10 µM | O=C(Nc1cncc(-c2ccc3[nH]nc(-c4cc5ccccc5[nH]4)c3c2)c1)c1ccccc1 [Compound 263, N-(5-(3-(1H-Indol-2-yl)-1H-indazol-5-yl)pyridin-3-yl)benzamide] | 2.9% | 1.57 µM | 
21 | 1.04 µM | c1ccc2[nH]c(-c3n[nH]c4ccc(-c5cncc(CN6CCCC6)c5)cc34)cc2c1 [Compound 266, 3-(1H-Indol-2-yl)-5-(5-(pyrrolidin-1-ylmethyl)pyridin-3-yl)-1H-indazole] |  | 0.563 µM | 
22 | > 10 µM | c1ccc2[nH]c(-c3n[nH]c4ccc(-c5cncc(CN6CCCCC6)c5)cc34)cc2c1 [Compound 267, 3-(1H-Indol-2-yl)-5-(5-(piperidin-1-ylmethyl)pyridin-3-yl)-1H-indazole] | 7.8% | > 10 µM | 49.9%
23 | > 10 µM | CC(C)(C)CC(=O)Nc1cncc(-c2ccc3[nH]nc(-c4cc5ccccc5[nH]4)c3c2)c1 [Compound 268, N-(5-(3-(1H-Indol-2-yl)-1H-indazol-5-yl)pyridin-3-yl)-3,3-dimethylbutanamide] | 12.4% | 6.89 µM | 
24 | > 10 µM | O=C(Nc1cncc(-c2ccc3[nH]nc(-c4cc5ccccc5[nH]4)c3c2)c1)C1CCC1 [Compound 273, N-(5-(3-(1H-Indol-2-yl)-1H-indazol-5-yl)pyridin-3-yl) cyclobutanecarboxamide] | 17.8% | > 10 µM | 3.5%
25 | > 10 µM | O=C(Nc1cncc(-c2ccc3[nH]nc(-c4cc5ccccc5[nH]4)c3c2)c1)C1CCCCC1 [Compound 275, N-(5-(3-(1H-Indol-2-yl)-1H-indazol-5-yl)pyridin-3-yl) cyclohexanecarboxamide] | 9.5% | > 10 µM | 43.7%
26 | 0.18 µM | CC(C)CC(=O)Nc1cncc(-c2ccc3[nH]nc(-c4cc5c(-c6ccsc6)cccc5[nH]4)c3c2)c1 [Compound 282, 3-Methyl-N-(5-(3-(4-(thiophen-3-yl)-1H-indol-2-yl)-1H-indazol-5-yl)pyridin-3-yl)butanamide] |  | > 10 µM | 34.9%
27 | 0.375 µM | CC(C)C(=O)Nc1cncc(-c2ccc3[nH]nc(-c4cc5c(-c6ccsc6)cccc5[nH]4)c3c2)c1 [Compound 289, N-(5-(3-(4-(Thiophen-3-yl)-1H-indol-2-yl)-1H-indazol-5-yl)pyridin-3-yl) isobutyramide] |  | 8.4 µM | 
28 | 3.1 µM | c1ccc(-c2ccc3[nH]nc(-c4cc5c(-c6ccoc6)cccc5[nH]4)c3c2)nc1 [Compound 336, 3-(4-(Furan-3-yl)-1H-indol-2-yl)-5-(pyridin-2-yl)-1H-indazole] |  | > 10 µM | 0%
29 | 0.371 µM | c1cncc(-c2ccc3[nH]nc(-c4cc5c(-c6cccs6)cccc5[nH]4)c3c2)c1 [Compound 340, 5-(Pyridin-3-yl)-3-(4-(thiophen-2-yl)-1H-indol-2-yl)-1H-indazole] |  | > 10 µM | 38.3%
30 | 0.841 µM | CN(C)Cc1cncc(-c2ccc3[nH]nc(-c4cc5c(-c6cccs6)cccc5[nH]4)c3c2)c1 [Compound 349, N,N-Dimethyl-1-(5-(3-(4-(thiophen-2-yl)-1H-indol-2-yl)-1H-indazol-5-yl)pyridin-3-yl)methanamine] |  | 1.15 µM | 
